Results published in article PMC12396409, “Screening and hit evaluation of a microbial metabolite library against the pathogenic Plasmodium falciparum and Toxoplasma gondii parasites” (International Journal for Parasitology: Drugs and Drug …, 2025).
Like-named read-outs stand apart in the source and are kept apart here. *1 amine or outer side, *2 acyl side, *3 side chain or, on linkers, in order; H or OH if unused. Where a SMILES comes first, the peptide text is derived from it. Bridges are numbered along the chain shown (N, C = ends). Roman numbers before positions name the chains, in order. [ ]: non-standard residue; d: D form. The star is where a group is joined. Actinocin(9to1) = Cc1c2oc3c(C)ccc(C(=O)[*:1])c3nc-2c(C(=O)[*:2])c(N)c1=O; Octatrienoyl(2E,4E,6E) = C/C=C/C=C/C=C/C(=O)*; NMeV = CN[C@H](C(=O)O)C(C)C; NMeA = CN[C@@H](C)C(=O)O; Sar = CNCC(=O)O

Assays:
[1] = tested on: P. falciparum 3D7 parasites; experiment: P. falciparum growth inhibition assay, 1-cycle (72 h treatment), SYBR DNA staining (library screen at 2 μg/mL and dose-response); assay type: cell-based, Plasmodium falciparum; conditions: for activity at 2 µg/mL: Plasmodium falciparum, 3D7
[2] = tested on: P. falciparum 3D7 parasites; experiment: P. falciparum growth inhibition assay, 2-cycle (120 h treatment), delayed-death screen and dose-response; assay type: cell-based, Plasmodium falciparum; conditions: for activity at 2 µg/mL: Plasmodium falciparum, 3D7
[3] = tested on: T. gondii RH strain (RH-Tub-eYFP) tachyzoites; experiment: microbe, parasite or virus in culture; assay type: cell-based, Toxoplasma gondii; conditions: for percent parasite growth at 2 µg/mL: Toxoplasma gondii
[4] = library screen at 2 μg/mL, 72 h, % growth, replicate 1
[5] = library screen at 2 μg/mL, 72 h, % growth, replicate 2
[6] = library screen at 2 μg/mL, 120 h, % growth, replicate 1
[7] = library screen at 2 μg/mL, 120 h, % growth, replicate 2
[8] = library screen at 2 μg/mL, 72 h, % growth, replicate 1, read-out: Pf_72h_%Growth_Rep1
[9] = library screen at 2 μg/mL, 72 h, % growth, replicate 2, read-out: Pf_72h_%Growth_Rep2
[10] = library screen at 2 μg/mL, 120 h, % growth, replicate 1, read-out: Pf_120h_%Growth_Rep1
[11] = library screen at 2 μg/mL, 120 h, % growth, replicate 2, read-out: Pf_120h_%Growth_Rep2

SMILES | Pf_72h_%Growth_Rep1 [1, 4] | Pf_72h_%Growth_Rep2 [1, 5] | Pf_120h_%Growth_Rep1 [2, 6] | Pf_120h_%Growth_Rep2 [2, 7] | Tg_72h_%Growth_Rep1 [3, 4] | Tg_72h_%Growth_Rep2 [3, 5] | further results
C/C=C/C=C/C=C/C(=O)N[C@@H](Cc1ccccc1)C(=O)N[C@H]1COC(=O)[C@@H]2CCCN2C(=O)[C@H](C)NC(=O)[C@H](C)N(C)C(=O)[C@@H]2CCCN2C1=O [A 54556B] ({Octatrienoyl(2E,4E,6E)}-FSP[NMeA]AP; ester 2-C) | 78.68% | 74.34% | 65.42% | 57.54% | 115.90% | 86.45% | 
C/C=C\C=C\[C@@H]1O[C@](O)([C@H](CC)C(=O)NC/C=C/C=C(\C)[C@@H](OC)[C@@H](C)[C@H]2C[C@@H](O)[C@@H](/C=C/C=C/C=C/C(=O)O)O2)[C@H](O)[C@H](O)C1(C)C [A 83016F] | 83.31% | 85.46% | 83.40% | 76.05% | 147.54% | 91.91% | 
C[C@H]1O[C@H](O[C@H]2[C@H](O)[C@@H](O)[C@@H](O[C@H]3[C@H](O)[C@@H](O)C(O)O[C@@H]3CO)O[C@@H]2CO)[C@H](O)[C@@H](O)[C@@H]1N[C@H]1C=C(CO)[C@@H](O)[C@H](O)[C@H]1O (stereo partly drawn) [Acarbose] |  |  |  |  |  |  | activity at 2 µg/mL [1, 8]: 83.3%; activity at 2 µg/mL [1, 9]: 87.2%; activity at 2 µg/mL [2, 10]: 85.5%; activity at 2 µg/mL [2, 11]: 82.2%; percent parasite growth at 2 µg/mL ([3]; 72 h, library screen at 2 μg/mL, 72 h, % growth, replicate 1, read-out: Tg_72h_%Growth_Rep1): 105%; percent parasite growth at 2 µg/mL ([3]; 72 h, library screen at 2 μg/mL, 72 h, % growth, replicate 2, read-out: Tg_72h_%Growth_Rep2): 86.3%
CC(=O)OC[C@]12CCC(C)=C[C@H]1O[C@@H]1[C@H](O)[C@@H](O)[C@@]2(C)[C@]12CO2 [Acetoxyscirpenol, 15-] | 9.02% | 0.50% | 8.73% | 7.76% | -2.14% | 0.34% | 
CC(=O)N[C@H]1CCOC1=O [Acetyl-L-homoserine lactone] | 5.19% | 20.05% | 2.96% | 5.45% | 88.39% | 103.34% | 
C=CC(C)(C)[C@]12C[C@@H]3C(=O)Nc4ccccc4C(=O)N3[C@H]1N(C(C)=O)c1ccccc12 [Acetylaszonalenin] | 98.36% | 85.99% | 140.03% | 96.89% | 84.46% | 90.00% | 
CC(=O)O[C@@H]1C[C@]2(C)[C@@]3(CO)[C@H](O)C(=O)C(C)=C[C@H]3O[C@H]1[C@@]21CO1 [Acetyldeoxynivalenol, 3-] | 11.16% | 9.81% | 14.50% | 5.88% | 4.23% | 6.65% | 
CC(=O)OC[C@]12[C@H](O)C(=O)C(C)=C[C@H]1O[C@@H]1[C@H](O)C[C@@]2(C)[C@]12CO2 [Acetyldeoxynivalenol, 15-] | 5.76% | -0.64% | 6.22% | 4.98% | -2.45% | -0.58% | 
CC(=O)NCCc1cnc[nH]1 [Acetylhistamine, N-] | 82.83% | 91.72% | 90.99% | 93.21% | 95.97% | 105.85% | 
CC(=O)NCCc1c[nH]c2ccc(O)cc12 [Acetylserotonin, N-] | 83.62% | 79.72% | 81.51% | 80.80% | 128.90% | 97.07% | 
CC(=O)NCCc1c[nH]c2ccccc12 [Acetyltryptamine, N-] | 83.66% | 90.45% | 84.03% | 87.17% | 109.38% | 85.68% | 
CC(=O)NCCc1ccc(O)cc1 [Acetyltyramine, N-] | 85.43% | 84.08% | 85.62% | 81.27% | 171.49% | 89.14% | 
Cc1c2oc3c(C)ccc(C(=O)N[C@@H]4C(=O)N[C@H](C(C)C)C(=O)N5CCC[C@H]5C(=O)N(C)CC(=O)N(C)[C@@H](C(C)C)C(=O)O[C@@H]4C)c3nc-2c(C(=O)N[C@@H]2C(=O)N[C@H](C(C)C)C(=O)N3CCC[C@H]3C(=O)N(C)CC(=O)N(C)[C@@H](C(C)C)C(=O)O[C@@H]2C)c(N)c1=O [Actinomycin D] (I: T[dV]P[Sar][NMeV] / II: T[dV]P[Sar][NMeV]; ester I:1-I:C, II:1-II:C; linker I:N-II:N via Actinocin(9to1)) |  |  |  |  |  |  | activity at 2 µg/mL [1, 8]: 2.91%; activity at 2 µg/mL [1, 9]: 5.02%; activity at 2 µg/mL [2, 10]: 7.65%; activity at 2 µg/mL [2, 11]: -5.71%; percent parasite growth at 2 µg/mL ([3]; library screen at 2 μg/mL, 72 h, % growth, replicate 1, read-out: Tg_72h_%Growth_Rep1): 2.02%; percent parasite growth at 2 µg/mL ([3]; library screen at 2 μg/mL, 72 h, % growth, replicate 2, read-out: Tg_72h_%Growth_Rep2): 0.47%
C/C=C(\C)[C@H](O)[C@H](C)/C=C(C)/C=C/C/C(C)=C/Cc1oc(OC)c(C)c(=O)c1C [Actinopyrone A] | 87.45% | 86.38% | 139.24% | 89.64% | 80.38% | 90.86% | 
C/C=C(\C)C(=O)OC[C@H]1O[C@H](O[C@H]2O[C@H](COC(=O)/C(C)=C/C)[C@@H](O)[C@H](O)[C@H]2O[C@@H]2O[C@H](CO)[C@@H](OC(=O)/C(C)=C/C)[C@H](OC(=O)/C(C)=C/C)[C@H]2O)[C@H](O[C@@H]2O[C@H](CO)[C@@H](OC(=O)/C(C)=C/C)[C@H](OC(=O)/C(C)=C/C)[C@H]2O)[C@@H](O)[C@@H]1O [Actinotetraose Hexatiglate] | 45.55% | 47.53% | 16.78% | 21.66% | 97.33% | 100.02% | 1) Growth (%) at 72 h ([1]; P. falciparum, 2 μg/mL, 72 h): 46.54%; 2) Growth (%) at 120 h ([2]; P. falciparum, 2 μg/mL, 120 h): 19.22%; 3) Fold change (72 h/120 h) ([2]; P. falciparum, growth at 72 h / growth at 120 h, 2 μg/mL): 2.4
CCCCCCCCCCCCCCCc1cc(O)cc(O)c1 [Adipostatin A] | 85.82% | 88.98% | 83.04% | 100.82% | 103.30% | 96.65% | 
COc1cc2c(c3oc(=O)c4c(c13)CCC4=O)[C@@H]1CCO[C@@H]1O2 [Aflatoxin B2] |  |  |  |  |  |  | Pf_72h_%Growth_Rep1 [1]: 82.21%; Pf_72h_%Growth_Rep2 [1]: 80.10%; Pf_120h_%Growth_Rep1 [2]: 93.01%; Pf_120h_%Growth_Rep2 [2]: 84.17%; Tg_72h_%Growth_Rep1 [3]: 112.94%; Tg_72h_%Growth_Rep2 [3]: 92.34%
COc1cc2c(c3oc(=O)c4c(c13)CCOC4=O)C1C=COC1O2 (stereo not drawn) [Aflatoxin G1] |  |  |  |  |  |  | Pf_72h_%Growth_Rep1 [1]: 72.54%; Pf_72h_%Growth_Rep2 [1]: 87.39%; Pf_120h_%Growth_Rep1 [2]: 145.89%; Pf_120h_%Growth_Rep2 [2]: 92.80%; Tg_72h_%Growth_Rep1 [3]: 81.49%; Tg_72h_%Growth_Rep2 [3]: 92.08%
